The text below walks through data of patent publication US11485792B2, “Antibodies, uses thereof and conjugates thereof” (Polytherics Limited, priority 2016, dated 2022).

Where two headings read alike, the source gives them in different places. Where a SMILES comes first, the peptide text is derived from it. [ ]: non-standard residue; d: D form. The star is where a group is joined. Dolaproine = CO[C@@H]([C@@H]1CCCN1)[C@@H](C)C(=O)O; Dil = CC[C@H](C)[C@H](NC)[C@@H](CC(=O)O)OC; X1 = C[C@@H](N*)[C@@H](O)c1ccccc1; NMeV = CN[C@H](C(=O)O)C(C)C

One data set concerns PC-3 cells. As to the kind of experiment: In vitro cell viability assay (CellTiter Glo), PC-3 (PSMA-negative control). It counts as cell-based. The conditions noted are these: Example 16; PSMA-negative PC-3 (negative control), 96 h. An excerpt: Loss of tumour cell viability following treatment with cytotoxic drugs or ADCs in vitro can be measured by growing cell lines in the presence of increasing concentrations of drugs or ADCs and quantifying the loss of proliferation or metabolic activity using CellTiter Glo® Luminescence reagent (Promega Corp. Technical Bulletin TB288; Lewis Phillips G. D, Cancer Res 2008; 68:9280-9290). The protocol describes cell seeding, drug treatment and determination of the cell viability in reference to untreated cells based on ATP synthesis, which is directly related to the number of cells present in the well.
PSMA-positive LNCaP (clone FGC) and C4-2 cells, as well as PSMA-negative PC-3 cells were detached with TrypLE and resuspended in complete medium. Cells were counted using disposable Neubauer counting chambers and cell density adjusted to 10×10^4 cells/mL for LNCaP, 2×10^4 cells/mL for C4-2 and 1×10^4 cells/mL for PC-3 respectively. […]
The cell viability assay was carried out using the Cell-Titer Glo® Luminescence reagent, as described by the manufacturer's instructions, (Promega Corp. Technical Bulletin TB288; Lewis Phillips G. D, Cancer Res 2008; 68:9280-9290). Luminescence was recorded using a plate reader (e.g. Molecular Devices Spectramax M3 plate reader), and data subsequently analysed using a four parameter non-linear regression model. […]

The subject of another data set is C4-2 cells. As to the kind of experiment: In vitro cell viability assay (CellTiter Glo), C4-2. Type of data set: cell-based, human. The conditions noted are these: Example 16; PSMA-positive C4-2, 96 h. An excerpt: (§1) The protocol describes cell seeding, drug treatment and determination of the cell viability in reference to untreated cells based on ATP synthesis, which is directly related to the number of cells present in the well.

The next data set deals with LNCaP cells. Type of data set: cell-based.
Excerpt: as §1

Data set [1] is described as follows: Heat stress test with SEC analysis of aggregation. Type of data set: physicochemical. How it is done: Antibody samples (0.5 mg/mL in PBS) were incubated at 75° C. for 30 min followed by incubation in an ice-bath for 5 min prior to being analysed for their extent of aggregation. Analysis of antibody solutions was carried out by Size Exclusion Chromatography (SEC) and by turbidity measurements.
SEC was performed using a TOSOH Bioscience TSK gel Super SW 3000 column. UV absorbance at 280 nm was monitored during an isocratic elution with a 0.2 M Potassium phosphate buffer, pH 6.8 (0.2 M potassium chloride and 15% isopropanol). The elution times and number of peaks indicate whether the sample contains aggregated, degraded or native antibody. The % area under the curve (Abs280) was used to determine the quantity of each species present in the SEC analysis.

The mark [2] stands for this setting: post stress test: 0.5 mg/mL in PBS, 75° C. for 30 min, then ice-bath 5 min, SEC.

In the case of `COc1cc2cc(c1Cl)N(C)C(=O)C[C@H](OC(=O)[C@H](C)N(C)C(=O)CCCCCN)[C@]1(C)O[C@H]1[C@H](C)[C@@H]1C[C@@](O)(NC(=O)O1)[C@H](OC)/C=C/C=C(\C)C2` [AHX-DM1], the IC50 with PC-3 cells was more than 1000 nM; in the data set with C4-2 cells, 57 nM; with LNCaP cells (Example 16, PSMA-positive LNCaP, 96 h), 341 nM.
In the case of `CC[C@H](C)[C@@H]([C@@H](CC(=O)N1CCC[C@H]1[C@H](OC)[C@@H](C)C(=O)N[C@H](C)[C@@H](O)c1ccccc1)OC)N(C)C(=O)[C@@H](NC(=O)[C@@H](NC)C(C)C)C(C)C` [MMAE] (H-[NMeV]V[Dil][Dolaproine]-X1), the half-maximal inhibitory concentration (IC50) turned out to be 8.2 nM with PC-3 cells; 0.28 nM in the data set on C4-2 cells; 0.81 nM in the data set on LNCaP cells (Example 14, LNCaP, 96 h incubation).
Consider “AB-22: de-immunised J591 anti-PSMA antibody, SEQ ID No 25 and 26; prior art comparator”, for which, in data set [1] (setting [2]), the “Ab in aggregated form (%)” value is on record as 100% and the “Ab in native conformation (%)” value turned out to be 0%. Besides, in data set [1] (propensity to aggregate upon heating and cooling), the “stability in heat stress SEC analysis (in words)” value is recorded as “less stable than AB-03”.
